Reference: patent US9115092B2, “Substituted quinazoline and pyrido-pyrimidine derivatives” (Asana Biosciences, LLC, priority 2010, dated 2015)

Legend:
[1] = target: T1, PI3Kα (wild-type), P110/P85α (Homo sapiens, UniProt P42336); assay: PI3 Kinase TR-FRET assay, PI3Kα (wild-type); type: biochemical
T1 construct: made in house; host or cells: SF9 insect cells
In short: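 TR-FRET read-out of PIP3 formation via biotin-PIP3 displacement (665/615 nm ratio) gave IC50 curves. Enzyme: 5 ng wild-type P110/P85α from Sf9 cells, 60 min RT with compound and PIP2 (MgCl2 40 mM, DTT 5 mM), then 30 min RT kinase reaction at 10 μM ATP and 10 μM PIP2.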

[2] = target: T2, mTOR kinase (Homo sapiens, UniProt P42345); assay: mTOR kinase TR-FRET assay; type: biochemical; conditions: read-out: mTO R
T2 construct: purchased Millipore, USA
In short: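 TR-FRET read-out (340 nm excitation, 615/665 nm emission) of Thr389 phosphorylation of a ULight-labeled p70 S6K peptide (50 nM) by mTOR, 20 μM ATP, 60 min room temperature after 60 min compound preincubation. Buffer HEPES pH 7.5 with MnCl2, EGTA; IC50 by sigmoidal dose-response.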

[3] = system: PC3 cells; assay: XTT assay for cell viability, PC3 cells; type: cell-based, human; conditions: Homo sapiens, PC-3, cell viability
Experimental: Using a commercial kit from Sigma Aldrich (Catalog #X34251) and following its protocol, PC3 cells in the log phase of growth were employed and seeded at an optimal density of 1000 cell/well on to 96 well plates and incubated for 24 h followed by the addition of compounds of formula (I) in serial dilutions. Compound dilutions were made in DMSO. The cells were incubated with the compounds of formula (I) for 96 h and XTT tetrazolium dye (Sigma, USA) was subsequently added and incubated at 37° C. After the color formation, absorbance was measured at 465 nm in a Spectramax® Gemini spectrophotometer. EC50 values were calculated using a sigmoidal dose response curve fit in GraphPad Prism® v5 software. The tested compounds of formula (I) which caused inhibition of PC3 cell proliferation as determined by this assay protocol are shown in Table 2.

T1 sequence (P42336 whole entry): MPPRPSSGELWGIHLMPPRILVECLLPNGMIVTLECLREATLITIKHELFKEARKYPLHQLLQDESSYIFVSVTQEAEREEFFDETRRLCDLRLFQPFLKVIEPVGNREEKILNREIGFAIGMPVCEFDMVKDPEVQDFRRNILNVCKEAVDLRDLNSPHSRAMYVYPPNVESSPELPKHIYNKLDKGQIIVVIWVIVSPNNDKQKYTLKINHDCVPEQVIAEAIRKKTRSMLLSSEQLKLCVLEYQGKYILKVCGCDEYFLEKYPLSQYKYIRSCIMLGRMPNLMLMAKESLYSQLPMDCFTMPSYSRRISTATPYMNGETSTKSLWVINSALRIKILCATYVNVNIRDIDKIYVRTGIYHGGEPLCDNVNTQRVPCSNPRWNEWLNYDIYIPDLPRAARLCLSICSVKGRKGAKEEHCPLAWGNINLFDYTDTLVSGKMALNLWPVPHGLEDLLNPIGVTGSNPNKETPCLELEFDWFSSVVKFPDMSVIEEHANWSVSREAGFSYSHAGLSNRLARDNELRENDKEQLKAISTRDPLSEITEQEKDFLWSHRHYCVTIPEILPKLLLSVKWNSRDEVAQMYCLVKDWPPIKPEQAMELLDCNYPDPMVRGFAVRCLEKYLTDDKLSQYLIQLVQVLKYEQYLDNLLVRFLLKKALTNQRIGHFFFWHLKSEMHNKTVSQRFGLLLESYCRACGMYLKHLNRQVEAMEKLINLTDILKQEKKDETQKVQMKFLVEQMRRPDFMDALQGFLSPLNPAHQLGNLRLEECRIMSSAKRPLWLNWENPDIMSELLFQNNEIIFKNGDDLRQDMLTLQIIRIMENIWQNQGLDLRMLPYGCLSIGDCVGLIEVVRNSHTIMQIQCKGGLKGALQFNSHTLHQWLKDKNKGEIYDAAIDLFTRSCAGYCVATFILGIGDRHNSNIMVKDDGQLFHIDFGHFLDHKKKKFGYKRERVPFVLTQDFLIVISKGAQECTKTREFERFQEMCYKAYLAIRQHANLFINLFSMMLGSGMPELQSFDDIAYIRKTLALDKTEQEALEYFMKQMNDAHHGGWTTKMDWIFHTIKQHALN
T1 sequence (P27986 whole entry partner): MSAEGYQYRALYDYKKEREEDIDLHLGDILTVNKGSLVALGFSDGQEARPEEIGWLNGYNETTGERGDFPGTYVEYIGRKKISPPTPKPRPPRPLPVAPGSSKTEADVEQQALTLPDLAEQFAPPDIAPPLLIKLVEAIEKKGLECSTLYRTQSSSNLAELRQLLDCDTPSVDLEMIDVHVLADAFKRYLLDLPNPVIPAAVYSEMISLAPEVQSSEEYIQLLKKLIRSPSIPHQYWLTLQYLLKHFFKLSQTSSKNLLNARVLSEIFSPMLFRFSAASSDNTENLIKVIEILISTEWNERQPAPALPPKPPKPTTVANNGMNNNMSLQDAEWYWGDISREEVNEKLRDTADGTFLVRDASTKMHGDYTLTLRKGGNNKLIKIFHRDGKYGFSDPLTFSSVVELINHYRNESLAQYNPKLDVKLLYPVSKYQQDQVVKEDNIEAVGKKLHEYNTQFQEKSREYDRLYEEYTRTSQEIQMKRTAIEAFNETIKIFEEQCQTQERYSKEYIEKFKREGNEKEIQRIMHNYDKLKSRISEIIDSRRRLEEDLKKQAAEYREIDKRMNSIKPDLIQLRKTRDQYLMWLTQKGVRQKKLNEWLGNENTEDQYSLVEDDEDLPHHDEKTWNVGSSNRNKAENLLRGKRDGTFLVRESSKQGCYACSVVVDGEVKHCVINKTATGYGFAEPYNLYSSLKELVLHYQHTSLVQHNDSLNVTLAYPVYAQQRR

Structure (SMILES) | IC50 [1] | IC50 [2] | IC50 [3]
CN(C)C(=O)c1ccc(NC(=O)Nc2ccc(-c3nc(N4CCOCC4)c4ccc(-c5cccnc5F)cc4n3)cc2)cn1 [Example 28, 5-(3-{4-[7-(2-fluoro-pyridin-3-yl)-4-morpholin-4-yl-quinazolin-2-yl]-phenyl}-ureido)-pyridine-2-carboxylic acid dimethylamide] | 50 to 200 nM | < 50 nM | < 100 nM
CN(C)C(=O)c1ccc(NC(=O)Nc2ccc(-c3nc(N4CCOCC4)c4cc(F)c(-c5cccnc5)cc4n3)cc2)cc1 [Example 29, 4-{3-[4-(6-fluoro-4-morpholin-4-yl-7-pyridin-3-yl-quinazolin-2-yl)-phenyl]-ureido}-N,N-dimethyl-benzamide] | < 50 nM | < 50 nM | < 100 nM
CN(C)C(=O)c1ccc(NC(=O)Nc2ccc(-c3nc(N4CCOCC4)c4cc(F)c(-c5cncnc5)cc4n3)cc2)cc1 [Example 30, 4-{3-[4-(6-fluoro-4-morpholin-4-yl-7-pyrimidin-5-yl-quinazolin-2-yl)-phenyl]-ureido}-N,N-dimethyl-benzamide] | < 50 nM | < 50 nM | < 100 nM
CN(C)C(=O)c1ccc(NC(=O)Nc2ccc(-c3nc(N4CCOCC4)c4ccc(-c5cccc(S(C)(=O)=O)c5)cc4n3)cc2)cn1 [Example 31, 5-(3-{4-[7-(3-methanesulfonyl-phenyl)-4-morpholin-4-yl-quinazolin-2-yl]-phenyl}-ureido)-pyridine-2-carboxylic acid dimethylamide] | 50 to 200 nM | < 50 nM | 100 to 500 nM
CN1CCN(C(=O)c2ccc(NC(=O)Nc3ccc(-c4nc(N5CCOCC5)c5ccc(-c6cccc(S(C)(=O)=O)c6)cc5n4)cc3)cc2)CC1 [Example 32, 1-(4-(4-methylpiperazine-1-carbonyl)phenyl)-3-(4-(7-(3-(methylsulfonyl)phenyl)-4-morpholino-quinazolin-2-yl)phenyl)urea] | < 50 nM | < 50 nM | 501 to 5000 nM
CN(C)C(=O)c1ccc(NC(=O)Nc2ccc(-c3nc(N4CCOCC4)c4ccc(-c5cncc(S(C)(=O)=O)c5)cc4n3)cc2)cc1 [Example 34, 4-(3-{4-[7-(5-methanesulfonyl-pyridin-3-yl)-4-morpholin-4-yl-qinazolin-2-yl]-phenyl}-ureido)-N,N-dimethyl-benzamide] | < 50 nM | < 50 nM | < 100 nM
CN(C)C(=O)c1ccc(NC(=O)Nc2ccc(-c3nc(N4CCOCC4)c4cc(F)c(-c5cccc(S(C)(=O)=O)c5)cc4n3)cc2)cc1 [Example 36, 4-(3-{4-[6-fluoro-7-(3-methanesulfonyl-phenyl)-4-morpholin-4-yl-quinazolin-2-yl]-phenyl}-ureido)-N,N-dimethyl-benzamide] | < 50 nM | < 50 nM | < 100 nM
CN1CCN(C(=O)c2ccc(NC(=O)Nc3ccc(-c4nc(N5CCOCC5)c5ccc(-c6ccsc6)cc5n4)cc3)cc2)CC1 [Example 37, 1-[4-(4-methyl-piperazine-1-carbonyl)-phenyl]-3-[4-(4-morpholin-4-yl-7-thiophen-3-yl-quinazolin-2-yl)-phenyl]-urea] | 50 to 200 nM | 50 to 200 nM | 100 to 500 nM
CN(C)C(=O)c1ccc(NC(=O)Nc2ccc(-c3nc(N4CCOCC4)c4cc(F)c(-c5cncc(S(C)(=O)=O)c5)cc4n3)cc2)cc1 [Example 38, 4-(3-{4-[6-fluoro-7-(5-methanesulfonyl-pyridin-3-yl)-4-morpholin-4-yl-quinazolin-2-yl]-phenyl}-ureido)-N,N-dimethyl-benzamide] | < 50 nM | < 50 nM | < 100 nM
CN(C)C(=O)c1ccc(NC(=O)Nc2ccc(-c3nc(N4CCOCC4)c4ncc(-c5cccc(S(C)(=O)=O)c5)cc4n3)cc2)cc1 [Example 39, 4-(3-{4-[7-(3-methanesulfonyl-phenyl)-4-morpholin-4-yl-pyrido[3,2-d]pyrimidin-2-yl]-phenyl}-ureido)-N,N-dimethyl-benzamide] | < 50 nM | < 50 nM | < 100 nM
Cc1ccc(-c2cnc3c(N4CCOCC4)nc(-c4ccc(NC(=O)Nc5ccc(C(=O)N(C)C)cc5)cc4)nc3c2)o1 [Example 43, N,N-dimethyl-4-(3-{4-[7-(5-methyl-furan-2-yl)-4-morpholin-4-yl-pyrido[3,2-d]pyrimidin-2-yl]-phenyl}-ureido)-benzamide] | < 50 nM | < 50 nM | 100 to 500 nM
CN(C)C(=O)c1ccc(NC(=O)Nc2ccc(-c3nc(N4CCOCC4)c4ccc(-c5cccc(CO)c5)cc4n3)cc2)cc1 [Example 45, 4-(3-{4-[7-(3-hydroxymethyl-phenyl)-4-morpholin-4-yl-quinazolin-2-yl]-phenyl}-ureido)-N,N-dimethyl-benzamide] | < 50 nM | < 50 nM | < 100 nM
CN(C)C(=O)c1ccc(NC(=O)Nc2ccc(-c3nc(N4CCOCC4)c4ccc(-c5ccsc5)cc4n3)cc2)cc1 [Example 52, N,N-dimethyl-4-{3-[4-(4-morpholin-4-yl-7-thiophen-3-yl-quinazolin-2-yl)-phenyl]-ureido}-benzamide] | < 50 nM | 50 to 200 nM | 100 to 500 nM
CN(C)C(=O)c1ccc(NC(=O)Nc2ccc(-c3nc(N4CCOCC4)c4ccc(-c5ccoc5)cc4n3)cc2)cc1 [Example 53, 4-{3-[4-(7-furan-3-yl-4-morpholin-4-yl-quinazolin-2-yl)-phenyl]-ureido}-N,N-dimethyl-benzamide] | 50 to 200 nM | 50 to 200 nM | 100 to 500 nM
CN(C)C(=O)c1ccc(NC(=O)Nc2ccc(-c3nc(N4CCOCC4)c4ccc(-c5ccncc5)cc4n3)cc2)cc1 [Example 58, N,N-dimethyl-4-{3-[4-(4-morpholin-4-yl-7-pyridin-4-yl-quinazolin-2-yl)-phenyl]-ureido}-benzamide] | < 50 nM | < 50 nM | 501 to 5000 nM
CN(C)C(=O)c1ccc(NC(=O)Nc2ccc(-c3nc(N4CCOCC4)c4ccc(-c5cnc6ccccc6c5)cc4n3)cc2)cc1 [Example 59, N,N-dimethyl-4-{3-[4-(4-morpholin-4-yl-7-quinolin-3-yl-quinazolin-2-yl)-phenyl]-ureido}-benzamide] | < 50 nM | < 50 nM | < 100 nM
COc1ccc(-c2ccc3c(N4CCOCC4)nc(-c4ccc(NC(=O)Nc5ccc(C(=O)N(C)C)cc5)cc4)nc3c2)cn1 [Example 60, 4-(3-{4-[7-(6-methoxy-pyridin-3-yl)-4-morpholin-4-yl-quinazolin-2-yl]-phenyl}-ureido)-N,N-dimethyl-benzamide] | < 50 nM | < 50 nM | 100 to 500 nM
CN1CCN(C(=O)c2ccc(NC(=O)Nc3ccc(-c4nc(N5CCOCC5)c5ncc(-c6cncnc6)cc5n4)cc3)cc2)CC1 [Example 67, 1-[4-(4-methyl-piperazine-1-carbonyl)-phenyl]-3-[4-(4-morpholin-4-yl-7-pyrimidin-5-yl-pyrido[3,2-d]pyrimidin-2-yl)-phenyl]-urea] | < 50 nM | < 50 nM | 100 to 500 nM
CN(C)C(=O)c1ccc(NC(=O)Nc2ccc(-c3nc(N4CCOCC4)c4ccc(-c5ccnc(F)c5)cc4n3)cc2)cc1 [Example 68, 4-(3-{4-[7-(2-fluoro-pyridin-4-yl)-4-morpholin-4-yl-quinazolin-2-yl]-phenyl}-ureido)-N,N-dimethyl-benzamide] | < 50 nM | < 50 nM | 501 to 5000 nM
Cc1ccc(-c2ccc3c(N4CCOCC4)nc(-c4ccc(NC(=O)Nc5ccc(C(=O)N6CCN(C)CC6)cc5)cc4)nc3c2)o1 [Example 70, 1-{4-[7-(5-methyl-furan-2-yl)-4-morpholin-4-yl-quinazolin-2-yl]-phenyl}-3-[4-(4-methyl-piperazine-1-carbonyl)-phenyl]-urea] | 50 to 200 nM | 50 to 200 nM | 501 to 5000 nM
CN1CCN(C(=O)c2ccc(NC(=O)Nc3ccc(-c4nc(N5CCOCC5)c5ncc(-c6cnn(C)c6)cc5n4)cc3)cc2)CC1 [Example 73, 1-[4-(4-methyl-piperazine-1-carbonyl)-phenyl]-3-{4-[7-(1-methyl-1H-pyrazol-4-yl)-4-morpholin-4-yl-pyrido[3,2-d]pyrimidin-2-yl]-phenyl}-urea] | < 50 nM | < 50 nM | 501 to 5000 nM
CN(C)C(=O)c1ccc(NC(=O)Nc2ccc(-c3nc(N4CCOCC4)c4ccc(-c5cccs5)cc4n3)cc2)cc1 [Example 74, N,N-dimethyl-4-{3-[4-(4-morpholin-4-yl-7-thiophen-2-yl-quinazolin-2-yl)-phenyl]-ureido}-benzamide] | < 50 nM | 50 to 200 nM | 501 to 5000 nM
COc1ncc(-c2ccc3c(N4CCOCC4)nc(-c4ccc(NC(=O)Nc5ccc(C(=O)N(C)C)cc5)cc4)nc3c2)cn1 [Example 75, 4-(3-{4-[7-(2-methoxy-pyrimidin-5-yl)-4-morpholin-4-yl-quinazolin-2-yl]-phenyl}-ureido)-N,N-dimethyl-benzamide] | < 50 nM | < 50 nM | < 100 nM
